# In PubChem BioAssay (NCI):
#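 The compound was tested at five concentrations on cells cultured in 96-well plates, with a 48-hour exposure period. GI50 is the concentration that inhibits growth by half. TGI marks complete inhibition of growth.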
# How the values were obtained:
# Assay in all cases: growth of human tumour cells (NCI), 48 h
# KM12 colon = tested on: KM12 colon
# HS 578T breast = tested on: HS 578T breast
# CCRF-CEM leukemia = tested on: CCRF-CEM leukemia
# T-47D breast = tested on: T-47D breast
# PC-3 prostate = tested on: PC-3 prostate
# CAKI-1 renal = tested on: CAKI-1 renal
# OVCAR-4 ovarian = tested on: OVCAR-4 ovarian
structure (smiles),measurement,setting,value
COC(=O)C(Nc1ccc(OC)cc1)c1ccccc1 (centres undefined),TGI,KM12 colon,> 100 µM
same,TGI,HS 578T breast,> 100 µM
same,TGI,CCRF-CEM leukemia,> 100 µM
same,TGI,T-47D breast,> 100 µM
same,TGI,PC-3 prostate,> 100 µM
same,TGI,CAKI-1 renal,> 100 µM
Cn1c(=O)c2[nH]c(CS(=O)(=O)Cc3nc4c([nH]3)c(=O)n(C)c(=O)n4C)nc2n(C)c1=O,TGI,KM12 colon,> 100 µM
same,TGI,HS 578T breast,> 100 µM
same,TGI,CCRF-CEM leukemia,> 100 µM
same,TGI,T-47D breast,> 100 µM
same,TGI,PC-3 prostate,> 100 µM
same,TGI,OVCAR-4 ovarian,> 100 µM
same,TGI,CAKI-1 renal,> 100 µM
CC1(C)N=C(N)N=C(N)N1c1cc(Cl)ccc1Cl,GI50,KM12 colon,> 100 µM
same,TGI,KM12 colon,> 100 µM
same,GI50,CCRF-CEM leukemia,> 100 µM
same,TGI,CCRF-CEM leukemia,> 100 µM
same,GI50,T-47D breast,> 100 µM
same,TGI,T-47D breast,> 100 µM
same,GI50,PC-3 prostate,> 100 µM
same,TGI,PC-3 prostate,> 100 µM
same,GI50,OVCAR-4 ovarian,86.8 µM
same,TGI,OVCAR-4 ovarian,> 100 µM
S=C(Nc1ccc(Cl)cc1)Nc1ccc(-c2nc3ccccc3[nH]2)cc1,GI50,KM12 colon,4.45 µM
same,TGI,KM12 colon,> 62 µM
same,GI50,HS 578T breast,6.49 µM
same,TGI,HS 578T breast,60.6 µM
same,GI50,CCRF-CEM leukemia,4.37 µM
same,TGI,CCRF-CEM leukemia,> 63.6 µM
same,GI50,T-47D breast,5.34 µM
same,TGI,T-47D breast,32.7 µM
same,GI50,PC-3 prostate,5.37 µM
same,TGI,PC-3 prostate,35.8 µM
same,GI50,OVCAR-4 ovarian,15.4 µM
same,TGI,OVCAR-4 ovarian,> 84.3 µM
same,GI50,CAKI-1 renal,2.7 µM
same,TGI,CAKI-1 renal,12.5 µM
O=c1cc(-c2ccccc2)nc2n1CCN2Cc1ccccc1,GI50,KM12 colon,35.7 µM
same,TGI,KM12 colon,> 100 µM
same,GI50,HS 578T breast,26.9 µM
same,TGI,HS 578T breast,81.7 µM
same,GI50,CCRF-CEM leukemia,16.2 µM
same,TGI,CCRF-CEM leukemia,42.8 µM
same,GI50,T-47D breast,65 µM
same,TGI,T-47D breast,> 100 µM
same,GI50,PC-3 prostate,32.3 µM
same,TGI,PC-3 prostate,> 100 µM
same,GI50,OVCAR-4 ovarian,74.4 µM
same,TGI,OVCAR-4 ovarian,> 100 µM
same,GI50,CAKI-1 renal,29.7 µM
same,TGI,CAKI-1 renal,> 100 µM
CC(=O)N1c2ccccc2Sc2cc(C(O)(C(F)(F)F)C(F)(F)F)ccc21,TGI,KM12 colon,> 10 µM
same,TGI,HS 578T breast,> 10 µM
same,TGI,CCRF-CEM leukemia,> 10 µM
same,TGI,T-47D breast,> 10 µM
same,TGI,PC-3 prostate,> 10 µM
same,TGI,OVCAR-4 ovarian,> 10 µM
same,TGI,CAKI-1 renal,> 10 µM
O=C(NOCC1CC1)c1ccc(F)c(F)c1Nc1ccc(I)cc1Cl,GI50,KM12 colon,0.649 µM
same,TGI,KM12 colon,7.34 µM
same,GI50,HS 578T breast,4.85 µM
same,TGI,HS 578T breast,> 92 µM
same,GI50,CCRF-CEM leukemia,2.99 µM
same,TGI,CCRF-CEM leukemia,19.1 µM
same,GI50,T-47D breast,3.15 µM
same,TGI,T-47D breast,> 52.3 µM
same,GI50,PC-3 prostate,3.03 µM
same,TGI,PC-3 prostate,16.5 µM
same,GI50,OVCAR-4 ovarian,1.81 µM
same,TGI,OVCAR-4 ovarian,17.7 µM
same,GI50,CAKI-1 renal,2.75 µM
same,TGI,CAKI-1 renal,> 100 µM
O=C1CCC2(C=C(Br)C(=O)C(Br)=C2)O1,GI50,KM12 colon,17.4 µM
same,TGI,KM12 colon,31.3 µM
same,GI50,HS 578T breast,20.4 µM
same,TGI,HS 578T breast,57.3 µM
same,GI50,CCRF-CEM leukemia,1.97 µM
same,TGI,CCRF-CEM leukemia,6.25 µM
same,GI50,T-47D breast,2.22 µM
same,TGI,T-47D breast,5.04 µM
same,GI50,PC-3 prostate,15.8 µM
same,TGI,PC-3 prostate,31.3 µM
same,GI50,OVCAR-4 ovarian,2.08 µM
same,TGI,OVCAR-4 ovarian,4.34 µM
same,GI50,CAKI-1 renal,0.611 µM
same,TGI,CAKI-1 renal,1.91 µM
COc1ccc2[nH]c(Cl)c(/C=C3/C(=O)N(C)c4ccccc43)c2c1,GI50,KM12 colon,16.9 µM
same,TGI,KM12 colon,34.7 µM
same,GI50,HS 578T breast,> 100 µM
same,TGI,HS 578T breast,> 100 µM
same,GI50,CCRF-CEM leukemia,43.6 µM
same,TGI,CCRF-CEM leukemia,> 100 µM
same,GI50,T-47D breast,13.1 µM
same,TGI,T-47D breast,63.4 µM
same,GI50,PC-3 prostate,> 100 µM
same,TGI,PC-3 prostate,> 100 µM
same,GI50,OVCAR-4 ovarian,> 100 µM
same,TGI,OVCAR-4 ovarian,> 100 µM
same,GI50,CAKI-1 renal,> 100 µM
same,TGI,CAKI-1 renal,> 100 µM
O=[N+]([O-])/C=C/c1c[nH]c2ccccc12,GI50,KM12 colon,14.6 µM
same,TGI,KM12 colon,31 µM
same,GI50,HS 578T breast,21.2 µM
same,TGI,HS 578T breast,66.6 µM
same,GI50,CCRF-CEM leukemia,15.8 µM
same,TGI,CCRF-CEM leukemia,> 100 µM
same,GI50,T-47D breast,15 µM
same,TGI,T-47D breast,37.7 µM
same,GI50,PC-3 prostate,24.2 µM
same,TGI,PC-3 prostate,64.8 µM
same,GI50,OVCAR-4 ovarian,12.4 µM
same,TGI,OVCAR-4 ovarian,26.8 µM
same,GI50,CAKI-1 renal,16.8 µM
same,TGI,CAKI-1 renal,32.7 µM
